A short description of data set [1]: Selectivity index, ratio of CC25 for African green monkey Vero cells to IC25 for Herpes simplex virus 1 KOS. In kind it is toxicity, cell-based. The note with it: read-out: Selectivity Index.
Data set [2] can be described thus: Therapeutic index, ratio of CC50 for African green monkey Vero cells to IC50 for Herpes simplex virus 1 KOS. In kind it is cell-based. The note with it: read-out: Ratio CC50/IC50.
The test system of the next data set is Vero. In words: Cytotoxicity against Chlorocebus aethiops (African green monkey) Vero cells after 72 hr by XTT assay. In kind it is cell-based. The note with it: chlorocebus sabaeus, vero, 72 h. Background: Tetrazolium assays rely on reduction of a dye to a coloured formazan, in cell work by metabolically active cells.
For another data set, the system named is Human alphaherpesvirus 1. The data set is described as follows: Antiviral activity against Human herpesvirus 1 strain KOS infected Vero cells after 72 hr by plaque reduction assay. The data set is classed as functional, organism-based. (Plaques are areas of infected cells; plaque reduction assays count them against a control.)
Where [3] appears, read: Human alphaherpesvirus 1, KOS, Vero, 72 h.
Setting [4] is: Human alphaherpesvirus 1, KOS, Vero, 72 h, read-out: IC50.

Each structure is given as a SMILES string. Activity calls are given as the source filed them.

What is called IC25 is the point of the concentration-response curve where the effect stands at 25%. By IC50 is commonly meant the concentration that gives 50% inhibition. Turning to `CCOC(=O)C1=C(C)NC(=O)NC1c1ccccc1` (stereo not drawn), in data set [1], the selectivity ratio was more than 1. The selectivity ratio in data set [2] amounted to 1. Further, in the data set with Vero, the CC25 entry was “Non-toxic” and the CC50 result was “Non-toxic”. The compound also gave an IC25 in the data set on Human alphaherpesvirus 1 (setting [3]) of 133 µM. In addition, in the data set with Human alphaherpesvirus 1 (vero), the IC50 result was “Not Active”.
Consider `CC1=C(C(=O)Nc2ccccc2Cl)C(c2ccc([N+](=O)[O-])cc2)NC(=O)N1` (stereo not drawn), for which the selectivity ratio in data set [1] was more than 167. For the same compound, in data set [2], the selectivity ratio was more than 1.2. Moreover, in the data set on Vero, the CC25 entry is recorded as “Non-toxic” and the CC50 result is given as “Non-toxic”. In addition, in the data set with Human alphaherpesvirus 1 (setting [3]), the IC25 amounted to 0.6 µM. In addition, the IC50 in the data set with Human alphaherpesvirus 1 (setting [4]) amounted to 81.9 µM.
On to `CCOC(=O)C1=C(C)NC(=O)NC1c1ccc(F)cc1` (stereo not drawn), for which the selectivity ratio in data set [1] was found to be 1. Besides, the selectivity ratio in data set [2] amounted to 1. Moreover, in the data set on Vero, the CC25 entry is recorded as “Non-toxic” and the CC50 result is reported as “Non-toxic”. The IC25 entry with Human alphaherpesvirus 1 is “inactive”. In the data set on Human alphaherpesvirus 1 (vero), the IC50 entry is on record as “Not Active”.
In the case of `COC(=O)C1=C(C)NC(=O)NC1c1ccc(F)cc1` (stereo not drawn), the selectivity ratio in data set [1] worked out at 1. For the same compound, the selectivity ratio in data set [2] was determined as 1. For the same compound, in the data set with Vero, the CC25 result was “Non-toxic” and the CC50 entry was “Non-toxic”. In addition, the IC25 result in the data set with Human alphaherpesvirus 1 was “inactive”. Besides, the concentration for half-maximal inhibition (IC50) result with Human alphaherpesvirus 1 (vero) is reported as “Not Active”.
As to `CCOC(=O)C1=C(C)N(C)C(=O)NC1c1ccc(F)cc1` (stereo not drawn), in data set [1], the selectivity ratio is more than 1. The selectivity ratio in data set [2] stood at 1. Moreover, in the data set with Vero, the CC25 entry was “Non-toxic” and the CC50 result is “Non-toxic”. Also, the 25% effect level with Human alphaherpesvirus 1 (setting [3]) (IC25) was put at 99 µM. In the data set on Human alphaherpesvirus 1 (vero), the half-maximal inhibitory concentration (IC50) entry is on record as “Not Active”.
As for `COC(=O)C1=C(C)NC(=S)NC1c1cccs1` (stereo not drawn), the selectivity ratio in data set [1] was more than 1.1. In addition, the selectivity ratio in data set [2] is more than 1. Besides, in the data set with Vero, the CC25 entry is given as “Non-toxic” and the CC50 result is listed as “Non-toxic”. In the data set on Human alphaherpesvirus 1 (setting [3]), this compound registered an IC25 of 92.5 µM. Besides, the IC50 in the data set with Human alphaherpesvirus 1 (setting [4]) is more than 100 µM.
Consider `COC(=O)C1=C(C)N(C)C(=O)NC1c1ccc(F)cc1` (stereo not drawn), for which, in data set [1], the selectivity ratio was 1. The selectivity ratio in data set [2] was determined as 1. In the data set with Vero, the CC25 entry is on record as “Non-toxic” and the CC50 entry was “Non-toxic”. Moreover, the IC25 entry with Human alphaherpesvirus 1 was “inactive”. Moreover, the IC50 entry in the data set with Human alphaherpesvirus 1 (vero) is recorded as “Not Active”.
Turning to `CCOC(=O)C1=C(C)NC(=O)NC1c1ccc(Br)cc1` (stereo not drawn), the CC25 in the data set with Vero turned out to be 67.5 µmol/L.
For the compound `CCCC1NC(=O)NC(C)=C1C(=O)OCC` (stereo not drawn), the selectivity ratio in data set [1] is 1. Further, in data set [2], the selectivity ratio came to 1. Further, in the data set with Vero, the CC25 result is recorded as “Non-toxic” and the CC50 result is “Non-toxic”. Further, the IC25 entry with Human alphaherpesvirus 1 is “inactive”. In addition, in the data set with Human alphaherpesvirus 1 (vero), the IC50 entry is recorded as “Not Active”.
For `CC1=C(C(=O)Oc2ccccc2)C(c2ccccc2)NC(=S)N1` (stereo not drawn), the selectivity ratio in data set [1] is more than 1.1. In addition, in data set [2], the selectivity ratio was more than 1. For the same compound, in the data set on Vero, the CC25 entry is “Non-toxic” and the CC50 result is given as “Non-toxic”. Also, it took 93.2 µM to reach the 25% level in the data set with Human alphaherpesvirus 1 (setting [3]) (IC25). Also, the IC50 with Human alphaherpesvirus 1 (setting [4]) was more than 100 µM.
As for `CC1=C(C(=O)Nc2ccccc2Cl)C(c2ccc(Cl)cc2)NC(=O)N1` (stereo not drawn), in data set [1], the selectivity ratio is more than 625. For the same compound, the selectivity ratio in data set [2] is more than 6.6. In the data set on Vero, the CC25 result was “Non-toxic” and the CC50 result is on record as “Non-toxic”. For the same compound, the IC25 in the data set on Human alphaherpesvirus 1 (setting [3]) is 0.16 µM. Besides, in the data set with Human alphaherpesvirus 1 (setting [4]), the 50% inhibitory concentration (IC50) was 13 µM.
Take `CCOC(=O)C1=C(C)NC(=O)NC1c1cnc(CS)n1NCc1ccccc1` (stereo not drawn): the selectivity ratio in data set [1] worked out at 1. Also, the selectivity ratio in data set [2] worked out at 1. Further, in the data set on Vero, the CC25 entry is recorded as “Non-toxic” and the CC50 entry was “Non-toxic”. Further, the IC25 entry in the data set on Human alphaherpesvirus 1 is “inactive”. In addition, the IC50 entry in the data set on Human alphaherpesvirus 1 (vero) is reported as “Not Active”.
Regarding `CC1=C(C(=O)Nc2ccccc2Cl)C(c2ccccc2Cl)NC(=O)N1` (stereo not drawn), in data set [1], the selectivity ratio was more than 1000. For the same compound, the selectivity ratio in data set [2] is more than 1.4. Besides, in the data set on Vero, the CC25 entry is listed as “Non-toxic” and the CC50 result is “Non-toxic”. Besides, the 25% effect level in the data set with Human alphaherpesvirus 1 (setting [3]) (IC25) was put at 0.1 µM. Also, in the data set on Human alphaherpesvirus 1 (setting [4]), the IC50 worked out at 67.4 µM.

For the origin of these results see ChEMBL document CHEMBL3045494, “Inhibitory effect and structureactivity relationship of some Biginelli-type pyrimidines against HSV-1” (Med Chem Res, 2013).
